Results from ChEMBL document CHEMBL6083241, “The heterodimer of 2-amino-1,8-naphthyridine and 3-aminoisoquinoline binds to the CTG/CTG triad via hydrogen bonding” (Bioorg Med Chem Lett, 2024).
Blank lines part the entries; values can stand above or below the compound they belong to. Activity calls are given as the source filed them. No cut-off for these calls is given here.

Columns and labels:
Format in all cases: nucleic-acid assay
CTG repeat expansion [1] = test: Binding affinity to dsDNA CTG/CTG triad (unknown origin) assessed as change in melting temperature by […]
CTG repeat expansion [2] = test: Binding affinity to dsDNA CTG/CTG triad (unknown origin) assessed as melting temperature at 50 uM […]
CCG repeat expansion [3] = test: Binding affinity to dsDNA CCG/CCG triad (unknown origin) assessed as increase in band intensity at 50 uM by circular dichroism analysis
CCG repeat expansion [4] = test: Binding affinity to dsDNA CCG/CCG motif (unknown origin) assessed as melting temperature at 50 uM […] (reference value: 21.6 +/-0.2 degreeC)
CTG repeat expansion [5] = test: Binding affinity to dsDNA CTG/CTG motif (unknown origin) assessed as dissociation constant measured every 2 mins by ITC analysis
TTT/ATA motif [6] = test: Binding affinity to dsDNA TTT/ATA motif (unknown origin) assessed as change in melting temperature at 50 uM […]
CTG repeat expansion [7] = test: Binding affinity to dsDNA CTG/CTG triad (unknown origin) assessed as increase in band intensity at 50 uM by circular dichroism analysis
CCG/CGG motif [8] = test: Binding affinity to dsDNA CCG/CGG motif (unknown origin) assessed as melting temperature at 50 uM […] (reference value: 44.8 +/-0.5 degreeC)
CGG repeat expansion [9] = test: Binding affinity to dsDNA CGG/CGG motif (unknown origin) assessed as change in melting temperature at 50 uM […]
CAG repeat expansion [10] = test: Binding affinity to dsDNA CAG/CAG motif (unknown origin) assessed as melting temperature at 50 uM […] (reference value: 21.8 +/-0.2 degreeC)
CTG repeat expansion [11] = test: Binding affinity to dsDNA CTG/CTG motif (unknown origin) assessed as change in entropy measured every 2 mins by ITC analysis
CCG/CGG motif [12] = test: Binding affinity to dsDNA CCG/CGG motif (unknown origin) assessed as change in melting temperature at 50 uM […]
CAG repeat expansion [13] = test: Binding affinity to dsDNA CAG/CAG motif (unknown origin) assessed as change in melting temperature at 50 uM […]
CTG repeat expansion [14] = test: Binding affinity to dsDNA CTG/CTG motif (unknown origin) assessed as change in enthalpy measured every 2 mins by ITC analysis
CTG repeat expansion [15] = test: Binding affinity to dsDNA CTG/CTG triad (unknown origin) assessed as decrease in imino proton signals by NMR analysis
CAG repeat expansion [16] = test: Binding affinity to dsDNA CAG/CAG triad (unknown origin) assessed as increase in band intensity at 50 uM by circular dichroism analysis
CGG repeat expansion [17] = test: Binding affinity to dsDNA CGG/CGG triad (unknown origin) measured upto 50 mins by ITC analysis
CTG repeat expansion [18] = test: Binding affinity to dsDNA CTG/CTG triad (unknown origin) assessed as increase in band intensity by circular dichroism analysis; conditions: dose 20-60 µM
CGG repeat expansion [19] = test: Binding affinity to dsDNA CGG/CGG triad (unknown origin) assessed as increase in band intensity at 50 uM by circular dichroism analysis
CTG repeat expansion [20] = test: Binding affinity to (CTG)9 repeat DNA (unknown origin) assessed as increase in band intensity at 20 to 60 uM by circular dichroism analysis; conditions: dose 20-60 µM
CAG/CTG motif [21] = test: Binding affinity to dsDNA CAG/CTG motif (unknown origin) assessed as melting temperature at 50 uM […] (reference value: 38.5 +/-0.4 degreeC)
TTT/ATA motif [22] = test: Binding affinity to dsDNA TTT/ATA motif (unknown origin) assessed as melting temperature at 50 uM […] (reference value: 16.6 +/-0.2 degreeC)
CGG repeat expansion [23] = test: Binding affinity to dsDNA CGG/CGG motif (unknown origin) assessed as melting temperature at 50 uM […] (reference value: 28.2 +/-0.3 degreeC)
CCG repeat expansion [24] = test: Binding affinity to dsDNA CCG/CCG motif (unknown origin) assessed as change in melting temperature at 50 uM […]
CTG repeat expansion [25] = test: Binding affinity to dsDNA CTG/CTG motif (unknown origin) assessed as gibbs free energy change measured every 2 mins by ITC analysis
CAG/CTG motif [26] = test: Binding affinity to dsDNA CAG/CTG motif (unknown origin) assessed as change in melting temperature at 50 uM […]

ΔTm (CTG repeat expansion [1]): 0.1 °C | Tm (CTG repeat expansion [2]): 27.9 °C
Compound: Cc1ccc2ccc(NC(=O)OCCCNCCCOC(=O)Nc3ccc4ccc(C)nc4n3)nc2n1

ΔTm (CTG repeat expansion [1]): 0 °C | Tm (CTG repeat expansion [2]): 27.8 °C
Compound: Cc1ccc2ccc(NC(=O)OCCCNCCCOC(=O)Nc3ccccn3)nc2n1

Activity (CCG repeat expansion [3]): inactive | Tm (CCG repeat expansion [4]): 24.1 °C | Kd (CTG repeat expansion [5]): 1.9 µM | ΔTm (CTG repeat expansion [1]): 5.8 °C | ΔTm (TTT/ATA motif [6]): 3.5 °C | Activity (CTG repeat expansion [7]): Active | Tm (CCG/CGG motif [8]): 44.8 °C | ΔTm (CGG repeat expansion [9]): 3.9 °C | Tm (CAG repeat expansion [10]): 24.6 °C | -TdeltaS (CTG repeat expansion [11]): 29.2 kcal/mol | ΔTm (CCG/CGG motif [12]): 0 °C | ΔTm (CAG repeat expansion [13]): 2.8 °C | deltaH (CTG repeat expansion [14]): -37.8 kcal/mol | Activity (CTG repeat expansion [15]): Active | Activity (CAG repeat expansion [16]): inactive | Activity (CGG repeat expansion [17]): Active | Activity (CTG repeat expansion [18]): Dose-dependent-effect | Activity (CGG repeat expansion [19]): inactive | Activity (CTG repeat expansion [20]): Active | Tm (CAG/CTG motif [21]): 38.2 °C | Tm (TTT/ATA motif [22]): 20.1 °C | Tm (CGG repeat expansion [23]): 32.1 °C | ΔTm (CCG repeat expansion [24]): 2.5 °C | deltaG (CTG repeat expansion [25]): -7.8 kcal/mol | Tm (CTG repeat expansion [2]): 33.6 °C | ΔTm (CAG/CTG motif [26]): -0.2 °C
Compound: Cc1ccc2ccc(NC(=O)OCCCNCCCOC(=O)Nc3cc4ccccc4cn3)nc2n1

ΔTm (CTG repeat expansion [1]): -0.1 °C | Tm (CTG repeat expansion [2]): 27.7 °C
Compound: Cc1ccc2ccc(NC(=O)OCCCNCCCOC(=O)Nc3ccc4ccccc4n3)nc2n1

ΔTm (CTG repeat expansion [1]): 0.2 °C | Tm (CTG repeat expansion [2]): 28 °C
Compound: Cc1ccc2ccc(NC(=O)OCCCN)nc2n1

ΔTm (CTG repeat expansion [1]): 0.3 °C | Tm (CTG repeat expansion [2]): 28.1 °C
Compound: NCCCOC(=O)Nc1cc2ccccc2cn1
